Laboratory results from PubChem BioAssay (NCI).
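Values below derive from 48-hour exposures of cells grown in 96-well plates, with endpoints linearly interpolated between the two concentrations bracketing the appropriate inhibition level. GI50 = concentration required for 50% inhibition of growth. At the TGI there is no net growth.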

Experiments:
Experiment in all cases: growth of human tumour cells (NCI), 48 h
786-0 renal = system: 786-0 renal
A549 NSCLC = system: A549 NSCLC
ACHN renal = system: ACHN renal
BT-549 breast = system: BT-549 breast
CAKI-1 renal = system: CAKI-1 renal
CCRF-CEM leukemia = system: CCRF-CEM leukemia
COLO 205 colon = system: COLO 205 colon
DU-145 prostate = system: DU-145 prostate
HCC-2998 colon = system: HCC-2998 colon
HCT-116 colon = system: HCT-116 colon
HCT-15 colon = system: HCT-15 colon
HL-60(TB) leukemia = system: HL-60(TB) leukemia
HOP-62 NSCLC = system: HOP-62 NSCLC
HOP-92 NSCLC = system: HOP-92 NSCLC
HS 578T breast = system: HS 578T breast
HT29 colon = system: HT29 colon
IGROV1 ovarian = system: IGROV1 ovarian
K-562 leukemia = system: K-562 leukemia
KM12 colon = system: KM12 colon
LOX IMVI melanoma = system: LOX IMVI melanoma
M14 melanoma = system: M14 melanoma
MCF7 breast = system: MCF7 breast
MDA-MB-231 breast = system: MDA-MB-231 breast
MDA-MB-435 = system: MDA-MB-435
MOLT-4 leukemia = system: MOLT-4 leukemia
NCI-H226 lung = system: NCI-H226 lung
NCI-H23 lung = system: NCI-H23 lung
NCI-H460 lung = system: NCI-H460 lung
NCI-H522 lung = system: NCI-H522 lung
NCI/ADR-RES ovarian = system: NCI/ADR-RES ovarian
OVCAR-3 ovarian = system: OVCAR-3 ovarian
OVCAR-4 ovarian = system: OVCAR-4 ovarian
OVCAR-5 ovarian = system: OVCAR-5 ovarian
OVCAR-8 ovarian = system: OVCAR-8 ovarian
PC-3 prostate = system: PC-3 prostate
RPMI-8226 leukemia = system: RPMI-8226 leukemia
RXF 393 renal = system: RXF 393 renal
SF-268 CNS = system: SF-268 CNS
SF-295 CNS = system: SF-295 CNS
SF-539 CNS = system: SF-539 CNS
SK-MEL-2 melanoma = system: SK-MEL-2 melanoma
SK-MEL-28 melanoma = system: SK-MEL-28 melanoma
SK-MEL-5 melanoma = system: SK-MEL-5 melanoma
SK-OV-3 ovarian = system: SK-OV-3 ovarian
SN12C renal = system: SN12C renal
SNB-19 CNS = system: SNB-19 CNS
SNB-75 CNS = system: SNB-75 CNS
SR leukemia = system: SR leukemia
SW-620 colon = system: SW-620 colon
T-47D breast = system: T-47D breast
TK-10 renal = system: TK-10 renal
U251 CNS = system: U251 CNS
UACC-257 melanoma = system: UACC-257 melanoma
UACC-62 melanoma = system: UACC-62 melanoma
UO-31 renal = system: UO-31 renal
A498 renal = system: A498 renal
EKVX NSCLC = system: EKVX NSCLC

## O=C(CC(O)c1ccncc1)c1ccccc1 (centres undefined)
786-0 renal
  GI50: 30 µM
  TGI: > 100 µM
A549 NSCLC
  GI50: 29 µM
  TGI: > 100 µM
ACHN renal
  GI50: 25.9 µM
  TGI: > 100 µM
BT-549 breast
  GI50: 22.4 µM
  TGI: 88.4 µM
CAKI-1 renal
  GI50: 23.1 µM
  TGI: > 100 µM
CCRF-CEM leukemia
  GI50: 30.7 µM
  TGI: > 100 µM
COLO 205 colon
  GI50: 16.5 µM
  TGI: 31.2 µM
DU-145 prostate
  GI50: 45.5 µM
  TGI: > 100 µM
HCC-2998 colon
  GI50: 35 µM
  TGI: > 100 µM
HCT-116 colon
  GI50: 19.3 µM
  TGI: 54.6 µM
HCT-15 colon
  GI50: 28.2 µM
  TGI: > 100 µM
HL-60(TB) leukemia
  GI50: 17.6 µM
  TGI: 59.6 µM
HOP-62 NSCLC
  GI50: 31.7 µM
  TGI: > 100 µM
HOP-92 NSCLC
  GI50: 16.1 µM
  TGI: 69.6 µM
HS 578T breast
  GI50: 36.4 µM
  TGI: > 100 µM
HT29 colon
  GI50: 28.6 µM
  TGI: 85.3 µM
IGROV1 ovarian
  GI50: 35.9 µM
  TGI: > 100 µM
K-562 leukemia
  GI50: 23.9 µM
  TGI: > 100 µM
KM12 colon
  GI50: 33.7 µM
  TGI: > 100 µM
LOX IMVI melanoma
  GI50: 20.9 µM
  TGI: 49.5 µM
M14 melanoma
  GI50: 28.6 µM
  TGI: > 100 µM
MCF7 breast
  GI50: 24.7 µM
  TGI: > 100 µM
MDA-MB-231 breast
  GI50: 16.7 µM
  TGI: 54.6 µM
MDA-MB-435
  GI50: 20.8 µM
  TGI: 56.5 µM
MOLT-4 leukemia
  GI50: 22.2 µM
  TGI: 79.4 µM
NCI-H226 lung
  GI50: 33.9 µM
  TGI: > 100 µM
NCI-H23 lung
  GI50: 42.8 µM
  TGI: > 100 µM
NCI-H460 lung
  GI50: 27.1 µM
  TGI: 89.2 µM
NCI-H522 lung
  GI50: 29.4 µM
  TGI: 99.3 µM
NCI/ADR-RES ovarian
  GI50: 29.8 µM
  TGI: > 100 µM
OVCAR-3 ovarian
  GI50: 30.5 µM
  TGI: > 100 µM
OVCAR-4 ovarian
  GI50: 20.5 µM
  TGI: > 100 µM
OVCAR-5 ovarian
  GI50: 37.6 µM
  TGI: > 100 µM
OVCAR-8 ovarian
  GI50: 33.8 µM
  TGI: > 100 µM
PC-3 prostate
  GI50: 23.3 µM
  TGI: > 100 µM
RPMI-8226 leukemia
  GI50: 17.9 µM
  TGI: 62.6 µM
RXF 393 renal
  GI50: 21.3 µM
  TGI: > 100 µM
SF-268 CNS
  GI50: 37.1 µM
  TGI: > 100 µM
SF-295 CNS
  GI50: 27.7 µM
  TGI: > 100 µM
SF-539 CNS
  GI50: 19.5 µM
  TGI: 48.3 µM
SK-MEL-2 melanoma
  GI50: 21.2 µM
  TGI: 55.3 µM
SK-MEL-28 melanoma
  GI50: 21.9 µM
  TGI: 70.4 µM
SK-MEL-5 melanoma
  GI50: 16.1 µM
  TGI: 30.8 µM
SK-OV-3 ovarian
  GI50: 25.4 µM
  TGI: 93.3 µM
SN12C renal
  GI50: 29.8 µM
  TGI: > 100 µM
SNB-19 CNS
  GI50: 34.1 µM
  TGI: > 100 µM
SNB-75 CNS
  GI50: 17.8 µM
  TGI: > 100 µM
SR leukemia
  GI50: 18.9 µM
  TGI: 47.6 µM
SW-620 colon
  GI50: 32.2 µM
  TGI: > 100 µM
T-47D breast
  GI50: 25.7 µM
  TGI: > 100 µM
TK-10 renal
  GI50: 41.8 µM
  TGI: > 100 µM
U251 CNS
  GI50: 28.6 µM
  TGI: > 100 µM
UACC-257 melanoma
  GI50: 23.8 µM
  TGI: 80.4 µM
UACC-62 melanoma
  GI50: 32 µM
  TGI: > 100 µM
UO-31 renal
  GI50: 22.1 µM
  TGI: > 100 µM

## COc1ccc(Cn2cc3c(c2-c2ccc(O)cc2)CCc2cnoc2-3)cc1
786-0 renal
  GI50: 0.695 µM
  TGI: 19.1 µM
A498 renal
  GI50: 0.203 µM
  TGI: 0.766 µM
A549 NSCLC
  GI50: 0.477 µM
  TGI: 18.4 µM
ACHN renal
  GI50: 0.956 µM
  TGI: 19.5 µM
BT-549 breast
  GI50: 10 µM
  TGI: 26.7 µM
CAKI-1 renal
  GI50: 0.331 µM
  TGI: 18.8 µM
CCRF-CEM leukemia
  GI50: 0.304 µM
  TGI: 4.2 µM
COLO 205 colon
  GI50: 0.577 µM
  TGI: 2.01 µM
DU-145 prostate
  GI50: 0.365 µM
  TGI: 5.14 µM
EKVX NSCLC
  GI50: 0.438 µM
  TGI: 26.9 µM
HCC-2998 colon
  GI50: 0.602 µM
  TGI: 12.9 µM
HCT-116 colon
  GI50: 0.422 µM
  TGI: 14.7 µM
HCT-15 colon
  GI50: 0.395 µM
  TGI: 21.6 µM
HL-60(TB) leukemia
  GI50: 0.221 µM
  TGI: 0.745 µM
HOP-62 NSCLC
  GI50: 0.49 µM
  TGI: 18.4 µM
HOP-92 NSCLC
  GI50: 13.9 µM
  TGI: 33.4 µM
HS 578T breast
  GI50: 0.252 µM
  TGI: 6.62 µM
HT29 colon
  GI50: 0.587 µM
  TGI: 4.79 µM
IGROV1 ovarian
  GI50: 0.578 µM
  TGI: 23.6 µM
K-562 leukemia
  GI50: 0.13 µM
  TGI: 16.6 µM
KM12 colon
  GI50: 0.241 µM
  TGI: 10.4 µM
LOX IMVI melanoma
  GI50: 0.713 µM
  TGI: 18.8 µM
M14 melanoma
  GI50: 0.325 µM
  TGI: 16.5 µM
MCF7 breast
  GI50: 0.333 µM
  TGI: 15.5 µM
MDA-MB-231 breast
  GI50: 0.699 µM
  TGI: 13.3 µM
MDA-MB-435
  GI50: 0.0737 µM
  TGI: 0.365 µM
MOLT-4 leukemia
  GI50: 0.507 µM
  TGI: 27.4 µM
NCI-H226 lung
  GI50: 4.6 µM
  TGI: 31.3 µM
NCI-H23 lung
  GI50: 0.461 µM
  TGI: 17.8 µM
NCI-H460 lung
  GI50: 0.321 µM
  TGI: 4.45 µM
NCI-H522 lung
  GI50: 0.0822 µM
  TGI: 0.596 µM
NCI/ADR-RES ovarian
  GI50: 0.19 µM
  TGI: 0.946 µM
OVCAR-3 ovarian
  GI50: 0.221 µM
  TGI: 0.557 µM
OVCAR-4 ovarian
  GI50: 1.76 µM
  TGI: 19.6 µM
OVCAR-5 ovarian
  GI50: 0.829 µM
  TGI: 21.6 µM
OVCAR-8 ovarian
  GI50: 0.633 µM
  TGI: 23.6 µM
PC-3 prostate
  GI50: 0.653 µM
  TGI: 44.5 µM
RPMI-8226 leukemia
  GI50: 0.365 µM
  TGI: 6.36 µM
RXF 393 renal
  GI50: 0.309 µM
  TGI: 3.67 µM
SF-268 CNS
  GI50: 0.784 µM
  TGI: 18.5 µM
SF-295 CNS
  GI50: 0.225 µM
  TGI: 2.49 µM
SF-539 CNS
  GI50: 0.273 µM
  TGI: 3.33 µM
SK-MEL-2 melanoma
  GI50: 0.379 µM
  TGI: 20.2 µM
SK-MEL-28 melanoma
  GI50: 0.616 µM
  TGI: 21.7 µM
SK-MEL-5 melanoma
  GI50: 0.315 µM
  TGI: 12.6 µM
SK-OV-3 ovarian
  GI50: 0.34 µM
  TGI: 14.3 µM
SN12C renal
  GI50: 1.16 µM
  TGI: 23.2 µM
SNB-19 CNS
  GI50: 0.586 µM
  TGI: 17.1 µM
SNB-75 CNS
  GI50: 0.221 µM
  TGI: 0.676 µM
SR leukemia
  GI50: 0.149 µM
  TGI: 3.79 µM
SW-620 colon
  GI50: 0.295 µM
  TGI: 15.9 µM
T-47D breast
  GI50: 0.377 µM
  TGI: 23.7 µM
TK-10 renal
  GI50: 0.603 µM
  TGI: 24.4 µM
U251 CNS
  GI50: 0.447 µM
  TGI: 15.1 µM
UACC-257 melanoma
  GI50: 13.7 µM
  TGI: 30.6 µM
UACC-62 melanoma
  GI50: 0.54 µM
  TGI: 17.6 µM
UO-31 renal
  GI50: 0.653 µM
  TGI: 18.7 µM
